Structures can show the parent of a compound that is named as a salt.
System: Aβ42 levels (γ-secretase modulation) in SHSY5Y-APP cells
Test: Cell-based ELISA assay for measuring extracellular Aβ42 levels
Parameters: species or system human
Conditions: not given

SMILES | Parent Aβ42 IC50 [nM]
COc1nc(-c2csc(Nc3c4c(nn3C3CCOC3)CCCC4)n2)ccc1-n1cnc(C)c1 (racemic) [Compound 40, (+/−)-4-(6-methoxy-5-(4-methyl-1H-imidazol-1-yl)pyridin-2-yl)-N-(2-(tetrahydrofuran-3-yl)-4,5,6,7-tetrahydro-2H-indazol-3-yl)thiazol-2-amine] | 289
CCn1nc2c(c1Nc1nc(-c3ccc(-n4cnc(C)c4)c(OC)n3)cs1)C(C)CC2(C)C (racemic) [Compound 72, (+/−)-N-(2-ethyl-4,6,6-trimethyl-2,4,5,6-tetrahydrocyclopenta[c]pyrazol-3-yl)-4-(6-methoxy-5-(4-methyl-1H-imidazol-1-yl)pyridin-2-yl)thiazol-2-amine] | 49
CCCn1nc2c(c1Nc1nc(-c3ccc(-n4cnc(C)c4)c(OC)n3)cs1)CCCC2 [Compound 34, 4-(6-methoxy-5-(4-methyl-1H-imidazol-1-yl)pyridin-2-yl)-N-(2-propyl-4,5,6,7-tetrahydro-2H-indazol-3-yl)thiazol-2-amine] | 148
COc1nc(-c2csc(Nc3c4c(nn3C(C)C)CCCC4)n2)ccc1-n1cnc(C)c1 [Compound 35, N-(2-isopropyl-4,5,6,7-tetrahydro-2H-indazol-3-yl)-4-(6-methoxy-5-(4-methyl-1H-imidazol-1-yl)pyridin-2-yl)thiazol-2-amine] | 195
COc1nc(-c2csc(Nc3c4c(nn3C(C)(C)C)CCCC4)n2)ccc1-n1cnc(C)c1 [Compound 36, N-(2-(tert-butyl)-4,5,6,7-tetrahydro-2H-indazol-3-yl)-4-(6-methoxy-5-(4-methyl-1H-imidazol-1-yl)pyridin-2-yl)thiazol-2-amine] | 216
COc1nc(-c2csc(Nc3c4c(nn3C3CCC3)CCCC4)n2)ccc1-n1cnc(C)c1 [Compound 37, N-(2-cyclobutyl-4,5,6,7-tetrahydro-2H-indazol-3-yl)-4-(6-methoxy-5-(4-methyl-1H-imidazol-1-yl)pyridin-2-yl)thiazol-2-amine] | 99
COc1nc(-c2csc(Nc3c4c(nn3C3CCCC3)CCCC4)n2)ccc1-n1cnc(C)c1 [Compound 38, N-(2-cyclopentyl-4,5,6,7-tetrahydro-2H-indazol-3-yl)-4-(6-methoxy-5-(4-methyl-1H-imidazol-1-yl)pyridin-2-yl)thiazol-2-amine] | 225
COc1nc(-c2csc(Nc3c4c(nn3C3CCCCC3)CCCC4)n2)ccc1-n1cnc(C)c1 [Compound 39, N-(2-cyclohexyl-4,5,6,7-tetrahydro-2H-indazol-3-yl)-4-(6-methoxy-5-(4-methyl-1H-imidazol-1-yl)pyridin-2-yl)thiazol-2-amine] | 280
COc1nc(-c2csc(Nc3c4c(nn3C3CCOCC3)CCCC4)n2)ccc1-n1cnc(C)c1 [Compound 41, 4-(6-methoxy-5-(4-methyl-1H-imidazol-1-yl)pyridin-2-yl)-N-(2-(tetrahydro-2H-pyran-4-yl)-4,5,6,7-tetrahydro-2H-indazol-3-yl)thiazol-2-amine] | 766
COc1nc(-c2csc(Nc3c4c(nn3C3CCN(C)CC3)CCCC4)n2)ccc1-n1cnc(C)c1 [Compound 42, 4-(6-methoxy-5-(4-methyl-1H-imidazol-1-yl)pyridin-2-yl)-N-(2-(1-methylpiperidin-4-yl)-4,5,6,7-tetrahydro-2H-indazol-3-yl)thiazol-2-amine] | >1000
COc1nc(-c2csc(Nc3c4c(nn3CCN3CCCCC3)CCCC4)n2)ccc1-n1cnc(C)c1 [Compound 43, 4-(6-methoxy-5-(4-methyl-1H-imidazol-1-yl)pyridin-2-yl)-N-(2-(2-(piperidin-1-yl)ethyl)-4,5,6,7-tetrahydro-2H-indazol-3-yl)thiazol-2-amine] | 475
COc1nc(-c2csc(Nc3c4c(nn3CCN3CCOCC3)CCCC4)n2)ccc1-n1cnc(C)c1 [Compound 44, 4-(6-methoxy-5-(4-methyl-1H-imidazol-1-yl)pyridin-2-yl)-N-(2-(2-morpholinoethyl)-4,5,6,7-tetrahydro-2H-indazol-3-yl)thiazol-2-amine trihydrochloride] | >1000
COc1nc(-c2csc(Nc3c4c(nn3CCCN3CCOCC3)CCCC4)n2)ccc1-n1cnc(C)c1 [Compound 45, 4-(6-methoxy-5-(4-methyl-1H-imidazol-1-yl)pyridin-2-yl)-N-(2-(3-morpholinopropyl)-4,5,6,7-tetrahydro-2H-indazol-3-yl)thiazol-2-amine] | 270
COc1nc(-c2csc(Nc3c4c(nn3CC(F)(F)F)CCCC4)n2)ccc1-n1cnc(C)c1 [Compound 47, 4-(6-methoxy-5-(4-methyl-1H-imidazol-1-yl)pyridin-2-yl)-N-(2-(2,2,2-trifluoroethyl)-4,5,6,7-tetrahydro-2H-indazol-3-yl)thiazol-2-amine] | 179
COCCn1nc2c(c1Nc1nc(-c3ccc(-n4cnc(C)c4)c(OC)n3)cs1)CCCC2 [Compound 48, 4-(6-methoxy-5-(4-methyl-1H-imidazol-1-yl)pyridin-2-yl)-N-(2-(2-methoxyethyl)-4,5,6,7-tetrahydro-2H-indazol-3-yl)thiazol-2-amine] | 272
COc1nc(-c2csc(Nc3c4c(nn3CCO)CCCC4)n2)ccc1-n1cnc(C)c1 [Compound 49, 2-(3-((4-(6-methoxy-5-(4-methyl-1H-imidazol-1-yl)pyridin-2-yl)thiazol-2-yl)amino)-4,5,6,7-tetrahydro-2H-indazol-2-yl)ethanol] | 362
COc1nc(-c2csc(Nc3c4c(nn3CCCO)CCCC4)n2)ccc1-n1cnc(C)c1 [Compound 50, 3-(3-((4-(6-methoxy-5-(4-methyl-1H-imidazol-1-yl)pyridin-2-yl)thiazol-2-yl)amino)-4,5,6,7-tetrahydro-2H-indazol-2-yl)propan-1-ol] | 229
COc1nc(-c2csc(Nc3c4c(nn3CC(C)(C)O)CCCC4)n2)ccc1-n1cnc(C)c1 [Compound 51, 1-(3-((4-(6-methoxy-5-(4-methyl-1H-imidazol-1-yl)pyridin-2-yl)thiazol-2-yl)amino)-4,5,6,7-tetrahydro-2H-indazol-2-yl)-2-methylpropan-2-ol] | 55
CCn1nc2c(c1N(C)c1nc(-c3ccc(-n4cnc(C)c4)c(OC)n3)cs1)CCCC2 [Compound 52, N-(2-ethyl-4,5,6,7-tetrahydro-2H-indazol-3-yl)-4-(6-methoxy-5-(4-methyl-1H-imidazol-1-yl)pyridin-2-yl)-N-methylthiazol-2-amine] | >1000
CCCn1nc(C(C)(C)C)cc1Nc1nc(-c2ccc(-n3cnc(C)c3)c(OC)n2)cs1 [Compound 53, N-(3-(tert-butyl)-1-propyl-1H-pyrazol-5-yl)-4-(6-methoxy-5-(4-methyl-1H-imidazol-1-yl)pyridin-2-yl)thiazol-2-amine dihydrochloride] | 86
COc1nc(-c2csc(Nc3cc(C(C)(C)C)nn3C(C)C)n2)ccc1-n1cnc(C)c1 [Compound 54, N-(3-(tert-butyl)-1-isopropyl-1H-pyrazol-5-yl)-4-(6-methoxy-5-(4-methyl-1H-imidazol-1-yl)pyridine-2-yl)thiazol-2-amine] | 87
COc1nc(-c2csc(Nc3cc(C(C)(C)C)nn3C(C)(C)C)n2)ccc1-n1cnc(C)c1 [Compound 55, N-(1,3-di-tert-butyl-1H-pyrazol-5-yl)-4-(6-methoxy-5-(4-methyl-1H-imidazol-1-yl)pyridin-2-yl)thiazol-2-amine] | 85
COc1nc(-c2csc(Nc3cc(C(C)(C)C)nn3CC(F)(F)F)n2)ccc1-n1cnc(C)c1 [Compound 57, N-(3-(tert-butyl)-1-(2,2,2-trifluoroethyl)-1H-pyrazol-5-yl)-4-(6-methoxy-5-(4-methyl-1H-imidazol-1-yl)pyridin-2-yl)thiazol-2-amine] | 87
CCn1nc(C(C)C)cc1Nc1nc(-c2ccc(-n3cnc(C)c3)c(OC)n2)cs1 [Compound 58, N-(1-ethyl-3-isopropyl-1H-pyrazol-5-yl)-4-(6-methoxy-5-(4-methyl-1H-imidazol-1-yl)pyridin-2-yl)thiazol-2-amine] | 394
COc1nc(-c2csc(Nc3cc(C(F)(F)F)nn3C(C)(C)C)n2)ccc1-n1cnc(C)c1 [Compound 61, N-(1-(tert-butyl)-3-(trifluoromethyl)-1H-pyrazol-5-yl)-4-(6-methoxy-5-(4-methyl-1H-imidazol-1-yl)pyridin-2-yl)thiazol-2-amine] | 121
COc1nc(-c2csc(Nc3cc(C(F)(F)F)nn3CC(F)(F)F)n2)ccc1-n1cnc(C)c1 [Compound 62, 4-(6-methoxy-5-(4-methyl-1H-imidazol-1-yl)pyridin-2-yl)-N-(1-(2,2,2-trifluoroethyl)-3-(trifluoromethyl)-1H-pyrazol-5-yl)thiazol-2-amine] | 771
COc1nc(-c2csc(Nc3c4c(nn3C(C)C)CCC4)n2)ccc1-n1cnc(C)c1 [Compound 65, N-(2-isopropyl-2,4,5,6-tetrahydrocyclopenta[c]pyrazol-3-yl)-4-(6-methoxy-5-(4-methyl-1H-imidazol-1-yl)pyridin-2-yl)thiazol-2-amine] | 66

Same assay, conditions: ratio of Aβ42 IC50 values

SMILES | Loss in activity (Aβ42) versus the parent fluorophenyl compound
CCn1nc2c(c1Nc1nc(-c3ccc(-n4cnc(C)c4)cc3)cs1)CCCC2 [Compound 22a] | greater than 4 fold
Cc1cn(-c2ccc(-c3csc(Nc4c5c(nn4C)CCCC5)n3)cc2)cn1 [Compound 31a] | greater than 2 fold
CCn1nc(C(C)(C)C)cc1Nc1nc(-c2ccc(-n3cnc(C)c3)cc2)cs1 [Compound 33a] | greater than 2 fold
